Results reported in PMC9569447 (International Journal of Molecular Sciences, 2022).
Entries after “also recorded” stand apart in the source; their conditions may differ. Marks after values point to notes of the source that are not given here. Numbered stars: 1 amine (or outer) side, 2 acyl side, 3 side chain; on linkers, the order of the positions; unused ones are H or OH. Bridge positions count the residues as written; N and C are the ends. Square brackets hold non-standard residues; d marks the D form. Side chains are listed from the residue outwards. Peptide text beside a SMILES is read from it. * marks the point of attachment. PEG8 = NCCOCCOCCOCCOCCOCCOCCOCCOCCC(=O)O; Palmitoyl = CCCCCCCCCCCCCCCC(=O)*; hCys = N[C@@H](CCS)C(=O)O; X1 = O=C(CC[*:2])[*:1]

What was measured:
[1] = system: diet-induced obese (DIO) Sprague Dawley rats; experiment: Dose escalation study: body weight, food and water intake; format: in vivo, rat
Source text: Male DIO Sprague Dawley rats (n = 4) were fed 60% HF diet (formula: D12492; Research Diets, Inc., New Brunswick, NJ, USA; 5.21 kcal/g) for 16 weeks prior to the start of the study. Rats were changed to being singly housed and allowed to acclimate for at least one week prior to the start of this study. Animals averaged 844.15 ± 99.95 g at baseline. Baseline measures of body weight, food intake, and water intake were taken for 6 days before drug administration began. Doses for the dose escalation study included 1, 2, 5, 10, 20, 50, and 100 nmol/kg. Body weight, food and water intake were assessed just prior to the start of the dark cycle.

human V2 receptor = target: T1, human V2 receptor (Homo sapiens, UniProt P30518); experiment: In vitro functional assay at V2R (cAMP production, HTRF); format: cell-based; conditions: result in words
T1 construct: expressed in transfected cells; host or cells: CHO
T1 sequence (P30518 whole entry): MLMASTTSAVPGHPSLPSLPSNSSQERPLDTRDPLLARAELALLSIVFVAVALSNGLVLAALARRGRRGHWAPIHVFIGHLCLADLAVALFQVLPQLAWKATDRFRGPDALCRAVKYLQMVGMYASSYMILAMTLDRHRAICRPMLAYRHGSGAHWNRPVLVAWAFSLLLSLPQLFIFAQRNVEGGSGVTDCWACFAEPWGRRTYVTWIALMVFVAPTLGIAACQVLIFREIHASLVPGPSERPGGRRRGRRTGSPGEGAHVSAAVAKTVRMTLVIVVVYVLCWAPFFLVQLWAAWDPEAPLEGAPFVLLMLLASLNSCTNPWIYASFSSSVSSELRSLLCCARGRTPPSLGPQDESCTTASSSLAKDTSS
Procedure: Evaluation of the agonist activity of ASK2131 at the human V2 receptor expressed in stably transfected CHO cells was conducted by measuring its effects on cAMP production using the HTRF detection method. The cells were suspended in HBSS buffer (Invitrogen, Carlsbad, CA) complemented with 20 mM HEPES (pH 7.4), 0.01% BSA and 500 μM IBMX, then distributed in microplates at a density of […] cells/well and incubated for 30 min at room temperature in the absence (control) or presence of the test compound or the reference agonist.
For stimulated control measurement, separate assay wells contained 1 nM AVP. Following incubation, the cells were lysed, and the fluorescence acceptor (D2-labeled cAMP) and fluorescence donor (anti-cAMP antibody labeled with europium cryptate) were added. After 60 min at room temperature, the fluorescence transfer was measured at λex = 337 nm and λem = 620 and 665 nm using a microplate reader (Envision, Perkin Elmer, Waltham, MA, USA). The cAMP concentration was determined by dividing the signal measured at 665 nm by that measured at 620 nm (ratio).
The results were expressed as a percent of the control response to 1 nM AVP. The standard reference agonist was AVP, which was tested in each experiment at several concentrations to generate a concentration-response curve from which its EC50 value was calculated.

human V1a receptor = target: T2, human V1a receptor (Homo sapiens, UniProt P37288); experiment: In vitro functional assay at V1aR (cytosolic Ca2+ mobilization, fluorimetric); format: cell-based; conditions: agonist activity, result in words
T2 construct: expressed in transfected cells; host or cells: CHO
T2 sequence (P37288 whole entry): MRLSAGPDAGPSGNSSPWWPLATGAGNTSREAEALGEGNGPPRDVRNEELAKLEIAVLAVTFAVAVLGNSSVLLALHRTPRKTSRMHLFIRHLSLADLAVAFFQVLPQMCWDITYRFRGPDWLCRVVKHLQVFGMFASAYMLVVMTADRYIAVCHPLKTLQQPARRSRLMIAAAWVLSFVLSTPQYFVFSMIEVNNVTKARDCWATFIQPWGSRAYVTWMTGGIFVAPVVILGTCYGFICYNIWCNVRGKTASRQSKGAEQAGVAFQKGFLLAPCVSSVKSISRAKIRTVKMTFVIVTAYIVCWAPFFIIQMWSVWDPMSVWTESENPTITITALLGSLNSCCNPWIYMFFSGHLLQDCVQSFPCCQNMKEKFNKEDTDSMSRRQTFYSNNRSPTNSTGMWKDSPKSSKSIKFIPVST
Procedure: The cells were suspended in DMEM buffer (Invitrogen, Carlsbad, CA, USA) complemented with 0.1% FCS, then distributed in microplates at a density of 4.5 × 10^4 cells/well. The fluorescent probe (Fluo4 Direct, Invitrogen, Carlsbad, CA, USA) mixed with probenicid in HBSS buffer (Invitrogen, Carlsbad, CA, USA) complemented with 20 mM HEPES (Invitrogen; Carlsbad, CA, USA) (pH 7.4) was then added into each well and equilibrated with the cells for 60 min at 37 °C then 15 min at 22 °C. The assay plates were positioned in a microplate reader (CellLux, PerkinElmer, Waltham, MA, USA) followed by the addition of the test compound ASK2131, reference agonist or HBSS buffer (basal control), and the measurements of changes in fluorescence intensity which varies proportionally to the free cytosolic Ca^2+ ion concentration. For stimulated control measurements, AVP at 1 μM was added in separate assay wells. The results were expressed as a percent of the control response to 1 μM AVP. The standard reference agonist was AVP, which was tested in each experiment at several concentrations to generate a concentration-response curve from which its EC50 value was calculated.

UCP1 = experiment: Gene expression of UCP1 in IWAT and IBAT (qRT-PCR); format: in vivo, rat
Source text: IWAT and IBAT were homogenized using a TissueLyser LT (Qiagen, Hilden, Germany). RNA was extracted from the tissue lysates using the RNeasy Lipid Mini Kit (mfg. # 74804; Qiagen, Hilden, Germany) and reverse transcribed using the high-capacity cDNA kit (mfg. # 4368814; Applied Biosystems, Waltham, MA, USA). qRT-PCR was completed on the mRNA samples using the Applied Biosystems StepOnePlus System (Applied Biosystems, Waltham, MA, USA). All samples were normalized to the cycle threshold value of 18S mRNA. The following TaqMan® probes (Applied Biosystems, Waltham, MA, USA) were used in this study: 18S (cat. # Hs99999901_s1), UCP1 (cat. # Rn00562126_m1), and Cox8b (cat. # Rn00562884_m1). Analysis was completed using the delta CT method.

[2] = system: diet-induced obese (DIO) Sprague Dawley rats; experiment: Post-treatment serum levels after the 22-day treatment; format: in vivo, rat
Procedure: Cardiac puncture was used to collect blood for analysis 2 h post final injection. Commercially available enzyme-linked immunosorbent assays (ELISA) were used for quantitative assessment of leptin (cat. # EZRL-83K; MilliporeSigma, Burlington, MA, USA), insulin (cat. # EZRMI-13K; MilliporeSigma, Burlington, MA, USA), and adiponectin (cat. # EZRAPD-62K MilliporeSigma, Burlington, MA, USA). Serum samples were diluted 1:500 for the adiponectin ELISA using the sample diluent provided with the kit. All ELISAs were completed following the manufacturers recommendations. Levels of glucose, cholesterol (total, HDL, and calculated LDL), triglycerides, ALT, and AST were determined in the serum on a Modular P chemistry analyzer (Roche Diagnostics, Risch-Rotkreuz, Switzerland) by the University of Washington Nutrition and Obesity Research Center’s Analytic Core (Seattle, WA, USA).

[3] = Pharmacokinetics after subcutaneous administration to rats; conditions: sc, 300 nmol/kg
Procedure: (§1) Whole blood samples were immediately centrifuged at 4 °C; separated plasma (~100 uL) was pipetted into micro centrifuge tubes, flash frozen on dry ice, and stored at −80 °C. Quantitative analysis plasma samples were performed by Alturas Analytics (Moscow, ID, USA) via peptide extraction from acidified plasma with acetonitrile followed by LC-MS/MS analysis.

in vivo = conditions: male, Sprague Dawley, rat, sc
Procedure: as §1

[4] = serum ELISA, after 22 days, mean ± SEM, n = 6 (Oxytocin n = 4)
[5] = serum, 2 h post final injection after 22 days, mean ± SEM, n = 6 (Oxytocin n = 4)
[6] = male, Sprague Dawley, rat, plasma

**Q.** With `CCCCCCCCCCCCCCCC(=O)NCCOCCOCCOCCOCCOCCOCCOCCOCCC(=O)NCCCC[C@H](NC(=O)CNC(=O)[C@@H]1CCSCCC(=O)N[C@@H](Cc2ccc(O)cc2)C(=O)N[C@@H]([C@@H](C)CC)C(=O)N[C@@H](CCC(N)=O)C(=O)N[C@@H](CC(N)=O)C(=O)N1)C(=O)NCC(N)=O` [ASK2131] (YIQN[hCys]GK([PEG8-Palmitoyl])G-NH2; linker N-5 via X1) as the compound, how does the “2-day averaged food intake reduction relative to baseline” value ([1]; DIO rats, at doses < 2 nmol/kg and > 5 nmol/kg) read?
**A.** 20–25%

**Q.** And the “loss in body weight compared to baseline” value ([1]; DIO rats, once daily sc doses rising every two days from 1 to 100 nmol/kg, average per rat over the treatment period)?
**A.** 8.4%

**Q.** And the “decrease in body weight compared to baseline” value ([1]; at 2 nmol/kg, after only four treatments)?
**A.** ~ 4%

**Q.** What about the adverse response ([1]; one rat with severe diarrhea was terminated and excluded, result in words) of the same compound?
**A.** No other animals treated with ASK2131 showed any signs of an adverse response

**Q.** And the water intake ([1]; with increased dosing of ASK2131, result in words)?
**A.** not significantly different from baseline

**Q.** And the V2R activation (human V2 receptor)?
**A.** potent activator of V2R; also recorded: activate V2R

**Q.** And the V1aR activation (human V1a receptor)?
**A.** did not display V1aR activation; also recorded: Neither molecule, ASK1476 or ASK2131, is active

**Q.** What about the “gene expression (UCP1, Cox8b) in comparison to the vehicle treated group” value (UCP1; IWAT and IBAT, result in words) of the same compound?
**A.** none of the examined genes showed a significant response

**Q.** What about the “UCP1 expression in IBAT, mean rank difference (MRD), ASK2131 relative to OXT treatment” value (UCP1; interscapular brown adipose tissue, qRT-PCR normalized to 18S, p = 0.011) of the same compound?
**A.** −12.5

**Q.** What about the “UCP1 expression in IWAT, mean difference (MD), ASK2131 relative to OXT treatment” value (UCP1; qRT-PCR normalized to 18S, 95% CI −4.23 to 0.42, p = 0.014) of the same compound?
**A.** −2.32

**Q.** And the “Calculated LDL” value ([2]; Calculated LDL = Cholesterol − (HDL + Triglycerides/5), serum after 22 days, mean ± SEM)?
**A.** 15 ± 5 mg/dL

**Q.** What about the “Cholesterol vs. vehicle treated animals” value ([2]; after 22 days of treatment, result in words) of the same compound?
**A.** significantly reduced

**Q.** And the Insulin [2, 4]?
**A.** 6.7 ± 1.0 ng/mL

**Q.** And the Leptin [2, 4]?
**A.** 39 ± 9.1 ng/mL

**Q.** What about the Adiponectin ([2]; serum ELISA, diluted 1:500, after 22 days, mean ± SEM, n = 6 (Oxytocin n = 4)) of the same compound?
**A.** 62.4 ± 7.3 ng/mL

**Q.** And the ALT [2, 5]?
**A.** 26 ± 2 U/L

**Q.** What about the AST [2, 5] of the same compound?
**A.** 73 ± 8 U/L

**Q.** What about the Cholesterol [2, 5] of the same compound?
**A.** 67 ± 6 ^b mg/dL

**Q.** And the Glucose [2, 5]?
**A.** 237 ± 12 mg/dL

**Q.** What about the HDL [2, 5] of the same compound?
**A.** 21 ± 2 mg/dL

**Q.** What about the Triglycerides [2, 5] of the same compound?
**A.** 182 ± 30 mg/dL

**Q.** And the Cmax [3, 6]?
**A.** 276 nM

**Q.** And the Tmax [3, 6]?
**A.** 4 h

**Q.** What about the clearance [3, 6] of the same compound?
**A.** 1.2 mL/min/kg

**Q.** And the “Cmax (total maximal plasma concentration)” value ([3]; male lean Sprague Dawley rats, n = 5 per group, LC-MS/MS)?
**A.** 276 nM

**Q.** And the Tmax ([3]; male lean Sprague Dawley rats, n = 5 per group, plasma, LC-MS/MS)?
**A.** 4 h

**Q.** What about the half-life (in vivo) of the same compound?
**A.** 2.3 h
